The values that follow come from US20240336634A1, “AGONISTS OF TYRO3 AS PROTECTION AGAINST PODOCYTE INJURY IN KIDNEY GLOMERULAR DISEASE” (The Government of the United States of America as …, priority 2021, published 2024).

For one data set, the target named is T1, TYRO3 (Homo sapiens, UniProt Q06418).
T1 construct: testing their effects on TYRO3, and AKT phosphorylation in podocytes; endogenous in cells
T1 sequence (Q06418 41-890): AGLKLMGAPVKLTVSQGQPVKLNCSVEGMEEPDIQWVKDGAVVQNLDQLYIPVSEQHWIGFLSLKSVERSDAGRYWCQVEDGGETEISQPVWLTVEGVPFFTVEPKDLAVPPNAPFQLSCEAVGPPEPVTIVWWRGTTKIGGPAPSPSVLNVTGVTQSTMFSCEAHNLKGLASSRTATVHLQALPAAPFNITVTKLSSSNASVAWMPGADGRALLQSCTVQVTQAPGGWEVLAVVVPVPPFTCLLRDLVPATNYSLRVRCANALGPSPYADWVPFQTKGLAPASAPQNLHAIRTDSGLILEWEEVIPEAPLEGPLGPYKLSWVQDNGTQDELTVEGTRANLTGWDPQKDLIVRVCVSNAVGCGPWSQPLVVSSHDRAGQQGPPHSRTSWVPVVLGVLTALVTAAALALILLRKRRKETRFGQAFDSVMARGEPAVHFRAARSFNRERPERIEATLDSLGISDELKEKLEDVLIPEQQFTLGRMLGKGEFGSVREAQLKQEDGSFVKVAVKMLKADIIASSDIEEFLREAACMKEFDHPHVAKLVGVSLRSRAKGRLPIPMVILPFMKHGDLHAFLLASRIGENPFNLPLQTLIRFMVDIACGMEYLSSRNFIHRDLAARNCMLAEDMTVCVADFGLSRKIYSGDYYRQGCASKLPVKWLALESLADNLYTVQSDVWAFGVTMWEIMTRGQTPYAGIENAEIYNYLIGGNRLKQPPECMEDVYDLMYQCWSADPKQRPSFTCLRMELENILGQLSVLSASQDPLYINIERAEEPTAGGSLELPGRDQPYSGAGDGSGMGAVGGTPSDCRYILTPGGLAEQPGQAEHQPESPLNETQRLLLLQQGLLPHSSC
Description: TYRO3 phosphorylation in podocytes, western blot. The data set is classed as cell-based. The note with it: for TYRO3 phosphorylation: podocytes, 30 minutes. The method, then: (§1) FIG. 2A-C show representative data illustrating screening of TYRO3 agonists by activation of TYRO3, AKT, and NK-κB target gene expression. Referring to FIG. 2A and FIG. 2B, podocytes were treated with control vehicle (C) or different TYRO3 agonists (compounds 1-10) for 30 minutes. Western blot analysis was performed for phospho- or total Tyro3 (FIG. 2A) and AKT (FIG. 2B). Referring to FIG. 2C, podocytes were treated with vehicle control (C), TNF-α (10 ng) alone (T), or together with different TYRO3 agonists (compounds 1-10) for 2 hours, and then q-PCR analysis was performed for NF-kB target gene expression (IL-6). N=3, *p<0.01 as compared to TNF-α alone.
FIG. 3A and FIG. 3B show representative data illustrating the time course and dose effects of C-10 on the phosphorylation of TYRO3, AKT, and NK-κB target gene expression. Referring to FIG. 3A, podocytes were treated with C-10 for 30 minutes at different doses (left) or at 100 nM for different time period (right). Referring to FIG. 3B, podocytes were treated with vehicle control TNF-α (10 ng) alone or together with different concentrations of C-10 for 2 hours, and then q-PCR analysis was performed for NF-kB target gene expression (IL-6 and CCL2). N=3, *p<0.01 and **p<0.001 as compared to TNF-α alone.
(§2) Referring to FIG. 4B, HEK293T cells were used to confirm the overexpression of Tyro3 and Axl (C: control; OV:overexpression). Referring to FIG. 4C, cells from above transfection were stimulated with C-10 at 100 nM for 30 minutes. Western blot analysis was performed for phospho- and total AKT and GAPDH was used as a control of protein loading. The representative blots of three independent experiments are shown.
(§3) Next, their biological activity was screened by testing their effects on TYRO3, and AKT phosphorylation in podocytes. […] To test the specificity, podocytes were treated with different doses of C-10 for 30 minutes, and then western blot analysis was performed with anti-phospho-Tyro3 antibody, which also recognizes phosphorylation of Mer and Axl. Since three TAM receptors have different molecular weights, they can be distinguished in the SDS gel. […] In addition, TYRO3 and Axl were overexpressed in […] (FIG. 4B), and the effects of C-10 in these cells was determined.
A general note: In western blotting, separated proteins are transferred to a membrane and probed.

A further data set deals with AKT. Briefly: AKT phosphorylation in podocytes, western blot. The note with it: 30 minutes, screening (FIG. 2). Type of data set: cell-based. The method, then: as §1
(§4) FIG. 3A and FIG. 3B show representative data illustrating the time course and dose effects of C-10 on the phosphorylation of TYRO3, AKT, and NK-κB target gene expression. Referring to FIG. 3A, podocytes were treated with C-10 for 30 minutes at different doses (left) or at 100 nM for different time period (right). […]
(§5) Next, their biological activity was screened by testing their effects on TYRO3, and AKT phosphorylation in podocytes. […] In addition, TYRO3 and Axl were overexpressed in podocytes (FIG. 4B), and the effects of C-10 in these cells was determined.

Data set [1] concerns NF-κB target gene expression (IL-6). Description: NF-κB target gene expression in TNF-α treated podocytes, q-PCR. The data set is classed as cell-based. The note with it: TNF-α (10 ng), 2 hours, IL-6 q-PCR. The method, then: as §1, §4, §5
A further data set concerns the target T2, Axl (Homo sapiens, UniProt P30530).
T2 construct: endogenous in cells; host or cells: human podocytes
T2 sequence (P30530 26-894): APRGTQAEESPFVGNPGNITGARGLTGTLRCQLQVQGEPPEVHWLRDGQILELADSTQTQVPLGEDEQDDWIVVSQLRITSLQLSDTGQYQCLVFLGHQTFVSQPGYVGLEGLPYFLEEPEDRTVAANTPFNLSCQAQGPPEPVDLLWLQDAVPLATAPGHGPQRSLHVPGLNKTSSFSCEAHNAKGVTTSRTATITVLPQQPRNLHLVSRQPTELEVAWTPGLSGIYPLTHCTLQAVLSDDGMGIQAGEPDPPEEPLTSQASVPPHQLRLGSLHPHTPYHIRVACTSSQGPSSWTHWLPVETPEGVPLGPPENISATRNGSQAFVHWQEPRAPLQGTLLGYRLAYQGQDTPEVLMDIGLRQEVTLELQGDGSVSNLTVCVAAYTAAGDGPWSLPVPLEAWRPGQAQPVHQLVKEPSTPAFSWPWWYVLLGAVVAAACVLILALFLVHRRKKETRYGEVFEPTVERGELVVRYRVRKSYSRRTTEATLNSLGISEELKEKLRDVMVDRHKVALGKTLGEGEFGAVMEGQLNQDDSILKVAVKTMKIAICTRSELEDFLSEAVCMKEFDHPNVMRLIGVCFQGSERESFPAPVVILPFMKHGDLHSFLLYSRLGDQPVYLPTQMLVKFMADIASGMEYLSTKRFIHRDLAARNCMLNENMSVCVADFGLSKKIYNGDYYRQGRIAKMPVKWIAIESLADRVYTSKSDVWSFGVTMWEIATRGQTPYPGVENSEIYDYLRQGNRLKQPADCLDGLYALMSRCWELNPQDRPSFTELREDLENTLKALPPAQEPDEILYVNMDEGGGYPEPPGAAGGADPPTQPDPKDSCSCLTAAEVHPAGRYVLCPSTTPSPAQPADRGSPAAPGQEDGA
Description: Axl phosphorylation in podocytes, western blot with anti-phospho-TAM receptor antibody. Type of data set: cell-based. Particulars: different doses, 30 minutes (FIG. 4A). The protocol: as §2, §3

The next data set concerns the target T3, Mer (Homo sapiens, UniProt Q12866).
T3 construct: endogenous in cells; host or cells: human podocytes
T3 sequence (Q12866 21-999): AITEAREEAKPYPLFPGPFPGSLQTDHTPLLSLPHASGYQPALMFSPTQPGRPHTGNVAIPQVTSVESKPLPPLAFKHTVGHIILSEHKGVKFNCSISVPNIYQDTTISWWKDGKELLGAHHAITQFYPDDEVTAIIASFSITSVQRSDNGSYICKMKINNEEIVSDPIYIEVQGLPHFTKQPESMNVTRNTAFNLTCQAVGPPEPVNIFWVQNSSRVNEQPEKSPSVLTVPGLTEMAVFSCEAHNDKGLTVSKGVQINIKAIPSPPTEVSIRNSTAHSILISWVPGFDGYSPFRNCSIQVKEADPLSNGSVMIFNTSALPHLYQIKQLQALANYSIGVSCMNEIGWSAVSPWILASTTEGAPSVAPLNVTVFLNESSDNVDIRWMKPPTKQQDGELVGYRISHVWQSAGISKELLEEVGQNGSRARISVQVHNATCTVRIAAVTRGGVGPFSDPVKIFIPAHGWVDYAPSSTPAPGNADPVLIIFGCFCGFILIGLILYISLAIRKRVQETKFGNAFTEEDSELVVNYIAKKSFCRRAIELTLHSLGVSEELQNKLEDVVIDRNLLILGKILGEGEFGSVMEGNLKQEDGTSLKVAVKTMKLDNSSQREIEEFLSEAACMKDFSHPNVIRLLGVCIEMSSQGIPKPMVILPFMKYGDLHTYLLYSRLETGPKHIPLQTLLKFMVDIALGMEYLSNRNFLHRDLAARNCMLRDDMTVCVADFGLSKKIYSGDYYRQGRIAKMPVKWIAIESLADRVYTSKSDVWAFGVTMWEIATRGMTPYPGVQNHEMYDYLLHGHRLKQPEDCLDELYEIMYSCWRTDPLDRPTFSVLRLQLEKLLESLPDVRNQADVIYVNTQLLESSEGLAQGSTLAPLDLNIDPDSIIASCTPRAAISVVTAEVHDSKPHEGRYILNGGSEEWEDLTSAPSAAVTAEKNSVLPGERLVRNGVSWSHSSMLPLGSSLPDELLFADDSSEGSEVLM
Description: Mer phosphorylation in podocytes, western blot with anti-phospho-TAM receptor antibody. The data set is classed as cell-based. Particulars: different doses, 30 minutes (FIG. 4A). The protocol:
as §2, §3

In data set [2] the test system is TYRO3 overexpressing cells. Briefly: AKT phosphorylation in TYRO3 overexpressing cells. Type of data set: cell-based. The note with it: 100 nM, 30 minutes (FIG. 4C). The protocol:
as §2, §3

In data set [3] the test system is mice with Adriamycin-induced nephropathy (ADRN). Description: Adriamycin-induced nephropathy (ADRN) in mice. The data set is classed as in vivo. The protocol: FIG. 5A-C show representative data illustrating that C-10 treatment attenuates adriamycin-induced nephropathy (ADRN) in mice. 10-week old male Balb/c mice were injected with adriamycin (8 mg/kg) and treated with C-10 at 20 mg/kg from day 3 post-injection. All mice were sacrificed at day 28 post-injection.
The effect of C-10 was determined in vivo in mice with Adriamycin-induced nephropathy (ADRN). ADRN was induced in the Balb/c mice by injection of adriamycin at a dose of 8 mg/kg at the age of 10 weeks. The mice were fed with either C-10 at a dose of 20 mg/kg body weight or vehicle by daily gavage started on day 3 after they received an injection of Adriamycin, and ending in 4 weeks when the mice were sacrificed.

For the next data set, the system named is diabetic mice (db/db). Description: Albuminuria and glomerular injury in diabetic db/db mice. Particulars: 2.5 mg/kg from age 10 weeks, 8 weeks. Type of data set: in vivo. The method, then: FIG. 6A-C show representative data illustrating that treatment with C-10 improves albuminuria and glomerular injury in diabetic mice. Db/db mice were treated with C-10 at 2.5 mg/kg at age of 10 week, the mice were sacrificed after 8 weeks of treatment.
The effect of C-10 on albuminuria and glomerular injury in diabetic mice was also evaluated. 10 week old db/db mice were treated with C-10 at 2.5 mg/kg. Mice were sacrificed at week 8. As shown in FIGS. 6A-C, administration of C-10 improved both albuminuria and glomerular injury relative to control.

Where [4] appears, read: ADRN Balb/c mice, 20 mg/kg daily gavage from day 3, 4 weeks.

As to `COc1cc(-c2nc(O)c(C)s2)ccc1Br` [C-8, 2-(4-Bromo-3-Methoxyphenyl)-5-Methylthiazol-4-ol], the TYRO3 phosphorylation result at TYRO3 (screening (FIG. 2A)) is given as “induced significantly”. Further, the AKT phosphorylation result in the data set on AKT is on record as “induced significantly”. For the same compound, the “NF-κB target gene expression” value in data set [1] is “suppressed”.
On to `Cc1sc(-c2ccc(B(O)O)s2)nc1O` [C-10, (5-(4-Hydroxy-5-Methylthiazol-2-yl)Thiophen-2-yl)Boronic Acid], for which the “specificity as agonist for TYRO3 among TAM receptors” value on TYRO3 (from phosphorylation of Tyro3, Axl and Mer) was “quite specific agonist for TYRO3”. Moreover, the TYRO3 phosphorylation entry on TYRO3 (screening (FIG. 2A)) is given as “induced significantly”; on TYRO3 (different doses, anti-phospho-Tyro3 antibody (FIG. 4A)), “induced significantly”. Also, the “effect as TYRO3 agonist compared between hits” value on TYRO3 (screening in podocytes) is listed as “appears better than C-8”. In addition, the AKT phosphorylation result in the data set with AKT is “induced significantly”. The “NF-κB target gene expression” value in data set [1] is given as “suppressed”. In addition, at Axl, the “phosphorylation of Axl” value is recorded as “did not affect”. In addition, the “phosphorylation of Mer” value on Mer is “slightly reduced”. In data set [2], the “AKT phosphorylation in TYRO3 overexpressing cells” value was “induced”. Also, the “toxicity during the treatment period” value in data set [3] (ADRN Balb/c mice, 20 mg/kg daily gavage) was “No obvious toxicity”. The albuminuria entry was “significantly reduced” in data set [3] (setting [4]) and “improved” with diabetic mice (db/db). Also, the glomerular injury entry in data set [3] (setting [4]) is “significantly reduced”; in the data set with diabetic mice (db/db) it was “improved”. The “adriamycin-induced nephropathy (ADRN)” value in data set [3] (Balb/c mice, 20 mg/kg from day 3, sacrificed day 28) is “attenuates”.
